Where two headings read alike, the source gives them in different places. One block for each molecule: values may come before it.
Assays:
[1] = system: P. falciparum (3D7, ring stage) cultures; test: P. falciparum 3D7 72-h growth inhibition, lactate dehydrogenase (PfLDH) assay; assay type: cell-based; conditions: Plasmodium falciparum, 72 h exposure
Description: Routine analyses of antimalarial activity against P. falciparum 3D7 was tested by TCGLS (Kolkata, India) using the lactate dehydrogenase (PfLDH) growth inhibition assay as previously described. […] P. falciparum strain (3D7) was obtained from BEI Resources.

[2] = molecular target: T1, PfTyrRS (Plasmodium falciparum, UniProt Q8IAR7); test: ATP consumption by PfTyrRS (Kinase Glo); assay type: biochemical; conditions: PfTyrRS 25 nM, ATP 10 μM, tyrosine 200 μM, cognate tRNA^Tyr 4.8 μM, 37°C 1 h; read-out: Inhibition of PfTyrRS (Kinase Glo) IC50
T1 sequence (Q8IAR7 entry or part of it): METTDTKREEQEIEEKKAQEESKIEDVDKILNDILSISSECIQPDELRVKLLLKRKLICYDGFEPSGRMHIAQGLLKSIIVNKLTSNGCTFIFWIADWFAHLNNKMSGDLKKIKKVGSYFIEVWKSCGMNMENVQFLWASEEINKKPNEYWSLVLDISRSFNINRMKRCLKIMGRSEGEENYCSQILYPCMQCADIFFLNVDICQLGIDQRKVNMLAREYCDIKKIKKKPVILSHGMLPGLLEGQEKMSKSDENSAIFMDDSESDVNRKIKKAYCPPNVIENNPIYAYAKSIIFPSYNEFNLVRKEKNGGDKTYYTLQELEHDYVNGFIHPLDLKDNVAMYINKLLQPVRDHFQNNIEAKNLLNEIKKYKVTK
Description: Consumption of ATP was measured using a luciferase-based assay as per the manufacturer’s instructions (Kinase-Glo Luminescent Kinase Assay, Promega).

[3] = system: HepG2 cells; test: HepG2 72-h viability, CellTiter-Glo; assay type: cell-based; conditions: Homo sapiens, 72 h exposure
Description: The HepG2 (Human hepatocyte carcinoma) cell line was procured from ATCC (American Type Culture Collection, Manassas, USA; HB-8065) and viability assessed using CellTiter-Glo luminescent cell viability assay reagents (Promega). For the assay, 2,000 cells/well were plated in 384-well plates 24 h prior to the experiment and incubated at 37°C in a CO2 incubator. The medium was removed; and cells were treated with fresh medium containing either vehicle (0.5% DMSO) or serially diluted compounds or doxorubicin (1.3 nM to 25 μM) in a final volume of 50 μL/well and further incubated for 72 h at 37°C in a CO2 incubator. […] Following incubation, 25 μL of medium was discarded and 25 μl of CellTiter-Glo reagent was added to each well and the plate was kept on a plate shaker for 15 min at 25°C with shaking at 300 rpm. Luminescence signals were measured in a PHERAstar FSX reader (BMG LABTECH).

[4] = molecular target: T1, PfTyrRS; test: Differential scanning fluorimetry (DSF) of PfTyrRS; assay type: binding
Description: The effect on ML471 and analogues on the thermal stability of TyrRS enzymes was assayed as previously described. […] SYPRO Orange (Sigma-Aldrich; 5,000X concentrate in DMSO) was added to the reaction mixture at a final concentration of 5X. 25 μL of the sample was added into each well of a 96-well qPCR plate (Applied Biosystems). The plate was sealed and analysed using StepOnePlus Real-Time PCR system (Applied Biosystems). The samples were heated from 20°C to 90°C with a 1% continuous gradient. The thermal unfolding curve was plotted as the first derivative curve of the raw fluorescence values. The melting temperature (Tm), defined as the peak of the first derivative curve, was used to assess the thermal stability of protein-ligand complexes.

[5] = system: Primary hepatocytes; test: Toxicity to primary hepatocyte host cells in the liver stage assay; assay type: cell-based, human; conditions: Homo sapiens, Hepatocyte, host cells of the NF175 experiment
Description: (§1) Activity against liver stage parasites was performed using a modification of published procedures. Briefly, cryopreserved human primary hepatocytes (NF175: H1500.H15B+ Lot No. HC0-6, TebuBio or NF135: F00995-P Lot No. IRZ, BioIVT) were thawed and seeded at 18,000 cells per well in collagen-coated 384-well microtiter plates in medium containing 10% heat inactivated fetal bovine serum (hiFBS). Cells were cultured at 37°C in 5% CO2. For NF175, medium was replaced by fresh medium containing 10% hiFBS, 5 h post plating. For NF135, medium was replaced by medium containing 0.2% BSA, 24 h post plating. 48 h post plating, salivary glands from Plasmodium-NF175 or NF135-infected Anopheles stephensi mosquitoes were dissected, added to the hepatocytes (10,000 per well/ NF175; or 12,500 per well/ NF135) and allowed to infect for 3 hours. Sporozoites were then aspirated, and compounds diluted in medium containing 10% hiFBS or 0.2% BSA, were added to the hepatocytes. Medium containing 10% hiFBS or 0.2% BSA and compounds was refreshed daily for four days. Hepatocytes were fixed with ice-cold methanol and samples were blocked with 10% hiFBS in PBS. Schizonts were stained with rabbit anti-HSP70 in 10% hiFBS for 1–2 h followed by incubation with a mixture of secondary goat anti-rabbit AlexaFluor 594 antibody and 4′,6-diamidine-2′-phenylindole dihydrochloride (DAPI) in 10% hiFBS for 30 min. Samples were washed with PBS containing 0.05% Tween 20 between different steps. Cells were imaged on a PicoExpress high content imager, and images were analysed automatically using CellReporterXpress software. Data were analysed by logistic regression using a four-parameter (Hill equation) model and a least-squares method to find the best fit.

[6] = system: P. falciparum liver stage schizont (NF175); test: Liver stage schizont assay in primary human hepatocytes (NF175); assay type: cell-based; conditions: Plasmodium falciparum, Hepatocyte, 96 h, four days
Description: as §1, with “Hepatocytes were fixed with ice-cold methanol and samples were blocked with 10% hiFBS in PBS. Schizonts were stained with rabbit anti-HSP70 in 10% hiFBS for 1–2 h followed by incubation with a mixture of secondary goat anti-rabbit AlexaFluor 594 antibody and 4′,6-diamidine-2′-phenylindole dihydrochloride (DAPI) in 10% hiFBS for 30 min. Samples were washed with PBS containing 0.05% Tween 20 between different steps.” left out

[7] = system: P. falciparum (strain 3D7A); design: method as in ref [1] Sanz et al., PloS one 2012; conditions: 10 x IC50; ref [1] Sanz et al., PloS one 2012; cited from earlier work
[8] = system: stage V NF54 strain male and female gametocytes; test: P. falciparum Dual Gamete Formation Assay (PfDGFA); assay type: cell-based; conditions: Plasmodium falciparum, 48 h
Description: Inhibition of the viability of stage V male and female gametocytes was assessed in the P. falciparum Dual Gamete Formation Assay (PfDGFA) as described previously. Briefly, mature stage V NF54 strain gametocytes were incubated with test molecules for 48 h in 384-well plates at 37°C. Gametogenesis was then triggered by cooling the plates to room temperature and addition of xanthurenic acid-containing activating medium (also containing anti-Pfs25 antibody (Mab 4B7) conjugated to a Cy3 fluorophore). Twenty minutes after activation, exflagellation was imaged in all wells of the plate using a x4 objective and automated brightfield microscopy. The plate was then incubated at 20°C for a further 24 h in the dark. Thereafter, female gamete formation was quantified by automated identification of Pfs25-positive cells. Automated counts were transformed to percent inhibition values with reference to positive 100 nM Cabamiquine (DDD498) and negative (DMSO) controls. Data represent the means of multiple independent biological repeats.

[9] = system: P. falciparum (strain 3D7A); test: Parasite Reduction Rate (PRR) estimation; assay type: cell-based, Plasmodium falciparum; conditions: 10 x IC50
Description: PRR was assessed using a standardized method. P. falciparum (strain 3D7A, MRA-151), contributed by David Walliker, was obtained through BEI Resources, NIAID, NIH. Cultures of parasites (~90% ring stage) were treated with compounds for 120 h, with daily renewal. Samples of parasites were taken at 0, 24, 48, 72, 96 and 120 h. Compounds were washed out and four independent 3-fold serial dilutions were established in 96-well plates, with fresh RBCs and culture medium. After 18 days, and again at 22 days, samples were taken to examine growth using SYBR Green I in an EnVision Multilabel Plate Reader (Perkin Elmer) and analysed using Excel and Grafit 5.0 software. The human biological samples were sourced ethically, and their research use was in accord with the terms of the informed consents under an IRB/EC approved protocol.

[10] = system: Pf3D7-pfs16-CBG99 gametocytes, immature (stage II/III) and mature (stage V); test: Gametocyte killing assay (luciferase); assay type: cell-based; conditions: Plasmodium falciparum, 48 h
Description: Gametocytogenesis was induced on a tightly synchronised (>97% rings) asexual parasite culture (Pf3D7-pfs16-CBG99 (kind gift from Pietro Alano), 0.5% parasitemia and 6% hematocrit) with a combination of nutrient starvation and a decrease in hematocrit, as previously described. For immature gametocytes (>90% stage II/III), cultures were exposed to 50 mM N-acetyl glucosamine (NAG) on days 1–4 to eliminate residual asexual parasites and harvested at days 5–6. For mature (>95% stage V) gametocytes, NAG treatment occurred from days 3–7 and harvest at day 13. Stage II/III and V gametocyte cultures (2 % gametocytaemia 1.5 % haematocrit, 150 μL/well) were exposed to compounds and incubated at 37°C for 48 h under hypoxic conditions, after which luciferase activity was determined with a non-lysing D-luciferin substrate (1mM in 0.1M citrate buffer, pH 5.5, 100 μL) and bioluminescence was detected with a 2 s integration time with a GloMax-Multi Detection System with Instinct software.

- IC50 [1]: 2.5 ± 0.6 nM
- IC50 [2]: 8500 ± 4500 nM
- IC50 [3]: 21300 nM
- ΔTm at 50 µM ([4]; 50 μM sulfamate, ATP, tyrosine, PftRNA^Tyr, 37°C 2 h, read-out: PfTyrRS binding (DSF) Delta Tm): 17 ± 0.1 °C
- Kd ([4]; estimated from DSF with an irreversible thermal unfolding model, read-out: PfTyrRS binding (DSF) apparent KD): 0.3 nM
- PfTyrRS Tm ([4]; with sulfamate, ATP, tyrosine and tRNA, apo 49.9 ± 0.6): 66.9 ± 0.5 °C
SMILES: Nc1ncnc2c1c(C1CC1)nn2[C@@H]1O[C@H](COS(N)(=O)=O)[C@@H](O)[C@H]1O [ML864]

SMILES: O=C1C(O)=C([C@H]2CC[C@H](c3ccc(Cl)cc3)CC2)C(=O)c2ccccc21 [Atovaquone]
- IC50 [5]: > 1000 nM
- IC50 [6]: 7 ± 3.9 nM
- Lag phase [7]: 48 h
- Log PRR [7]: 2.9
- PCT99.9% [7]: 90 h
- Slope [7]: -0.060

- IC50 ([8]; female, read-out: Dual gamete formation assay (female) IC50(48h)): 2.2 ± 0.1 nM
- IC50 ([8]; male, read-out: Dual gamete formation assay (male) IC50(48h)): 2.3 ± 0.4 nM
SMILES: O=C(NCCN1CCCC1)c1cc(-c2ccc(CN3CCOCC3)cc2)nc2ccc(F)cc12 [Cabamiquine, reference compound]

SMILES: CCc1nc(N)nc(N)c1-c1ccc(Cl)cc1 [Pyrimethamine, reference compound]
- Lag phase [9]: 24 h
- Log PRR [9]: 3.7
- PCT99.9% [9]: 56 h
- Slope [9]: -0.078

SMILES: CN(C)c1ccc2nc3ccc(=[N+](C)C)cc-3sc2c1 [Methylene blue, reference compound]
- IC50 ([10]; read-out: Early stage gametocytes IC50): 62 ± 11 nM
- IC50 ([10]; read-out: Mature stage gametocytes IC50): 353 ± 63 nM

From article PMC11671014 (PLOS Pathogens, 2024)
